Several values for one entry are separate records, joined by “and”; a condition that tells them apart may be missing. Equal values may be shown once. Read-outs that look alike come from different tables or passages of the source.
What was measured:
[1] = system: PD-L1; settings: cited from earlier work
[2] = target: T1, human PD-L1 (Homo sapiens, UniProt Q9NZQ7); test: HTRF PD-1/PD-L1 binding assay (cell-free); settings: for fold decrease in affinity by methylation at R3*: pairs 4c vs 5a, 4c vs 5b, 4e vs 5c, 4e vs 5d; for IC50: cell-free competitive PD-1/PD-L1 HTRF, mean ± SD, read-out: IC50 (hPD-L1 binding affinity, HTRF); for fold decrease in affinity by fluoroethylation / fluoroethyl carbamylation at R3*: pairs 4f vs 5h, 4j vs 5j
T1 construct: purchased Cisbio Bioassays SAS, Codolet, France 64PD1PEG
T1 sequence (Q9NZQ7 19-238 limits assumed): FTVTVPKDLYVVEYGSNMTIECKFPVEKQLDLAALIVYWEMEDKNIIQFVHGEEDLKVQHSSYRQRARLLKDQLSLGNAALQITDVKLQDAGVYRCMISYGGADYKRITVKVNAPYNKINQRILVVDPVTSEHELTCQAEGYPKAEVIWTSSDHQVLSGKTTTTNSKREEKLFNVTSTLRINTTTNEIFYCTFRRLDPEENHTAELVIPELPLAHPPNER

[3] = system: PD-L1-negative (CHO) cells; test: Competitive radioligand binding assay with [^89Zr]Zr-atezolizumab, PD-L1-negative cells; set-up: species or system Chinese hamster
Method: When 5a and 5c were administered at their highest noncytotoxic concentrations, a 50% blockade of antibody binding was observed (p = 0.034, p = 0.025, respectively).
Nonspecific binding of MultiScreen plates (Merck KGaA, Darmstadt, Germany) was blocked with additive-free Ham’s F-12 medium for 30 min, followed by the addition of 2 × 10^5 CHO-K1 (ATCC, Manassas, USA) or CHO-hPD-L1 cells in 150 μL of additive-free Ham’s F-12 medium per well. […] Supernatant was removed after 60 min of incubation using the MultiScreenHTS vacuum filtration system (Merck KGaA, Darmstadt, Germany) and cells were washed twice with DPBS. After drying, filters were punched and measured in a Wizard^2 γ counter (PerkinElmer, Waltham, USA).

[4] = system: CHO-hPD-L1 cells; test: MTT cell viability assay; format: cell-based, Chinese hamster; settings: Cricetulus griseus, 24 h
[5] = target: T2, PD-L1 (CHO-hPD-L1 cells) (Homo sapiens, UniProt Q9NZQ7); test: Competitive radioligand binding assay with [^89Zr]Zr-atezolizumab, PD-L1-positive cells; settings: for % applied activity ([^89Zr]Zr-atezolizumab bound) / blockade of antibody binding: CHO-hPD-L1 cells; for % applied activity ([^89Zr]Zr-atezolizumab bound): preincubation with 5,000 nM blocker; for blockade of antibody binding: highest noncytotoxic concentration; for Ki: range contingent on published KD values of atezolizumab, read-out: Ki (Cheng–Prusoff)
T2 construct: host or cells: CHO (Chinese hamster ovary) cells, kept under G418 selection
T2 sequence (Q9NZQ7 19-290): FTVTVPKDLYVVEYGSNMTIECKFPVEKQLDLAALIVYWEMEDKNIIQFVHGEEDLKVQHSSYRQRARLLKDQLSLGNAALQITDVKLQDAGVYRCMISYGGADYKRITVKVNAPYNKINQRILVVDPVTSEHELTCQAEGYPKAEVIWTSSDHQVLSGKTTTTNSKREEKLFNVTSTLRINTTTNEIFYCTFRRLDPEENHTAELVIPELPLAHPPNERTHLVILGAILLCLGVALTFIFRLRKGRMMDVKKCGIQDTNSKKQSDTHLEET

[6] = Lipophilicity by HPLC method (μHPLC logD); settings: for chromatographic logD: pH 7.4, μHPLC logD; for μHPLC logD: pH 7.4
[7] = literature IC50 as stated in the original patent, read-out: Lit. IC50
[8] = preincubation with 5,000 nM blocker
[9] = read-out: IC50 (Figure 1, previously reported ligands)

Compound: Cc1c(COc2cc(CNC[C@@H](O)C(=O)O)ccc2C(F)(F)F)cccc1-c1ccc2c(c1)OCCO2 [BMS-114]
- IC50 [1, 7]: 43 nM

Compound: Cc1c(COc2ccc(CN[C@H](CO)C(=O)O)c(OCc3cccc(C#N)c3)c2)cccc1-c1ccccc1 [BMS-1016]
- IC50 [1, 7]: 4.55 nM

Compound: CC(=O)NCCNCc1ccc(OCc2cccc(-c3ccccc3)c2C)cc1OCc1ccc(C(=O)O)cc1 [BMS-1043]
- IC50 [1, 7]: 239 nM

Compound: CC(=O)NCCNCc1ccc(OCc2cccc(-c3ccccc3)c2C)cc1OCc1ccccc1[N+](=O)[O-] [BMS-1057]
- IC50 [1, 7]: 986 nM

Compound: CC(=O)NCCNCc1ccc(OCc2cccc(-c3ccccc3)c2C)cc1OCc1cccc(OC(F)(F)F)c1 [BMS-1082]
- IC50 [1, 7]: 828 nM

Compound: CC(=O)NCCNCc1ccc(OCc2cccc(-c3ccccc3)c2C)cc1OCc1cc(C#N)ccc1F [BMS-1095]
- IC50 [1, 7]: 81.2 nM

Compound: CC(=O)NCCNCc1ccc(OCc2cccc(-c3ccccc3)c2C)cc1OCc1ccc(F)c(C)c1 [BMS-1108]
- IC50 [1, 7]: 624 nM

Compound: CC(=O)NCCNCc1ccc(Oc2cccc(-c3ccccc3)c2C)cc1OCc1cccc(NC(=O)OC(C)(C)C)c1 [BMS-1119]
- IC50 [1, 7]: 14200 nM

Compound: Cc1c(COc2cc(OCc3cccc(C#N)c3)c(CN[C@H](CCO)C(=O)O)cc2Cl)cccc1-c1ccc2c(c1)OCCO2 [BMS-1205]
- IC50 [1, 7]: 2.71 nM

Compound: Cc1c(COc2cc(OCc3cccc(C#N)c3)c(CNC(C(=O)O)C(C)(C)O)cc2Cl)cccc1-c1ccc2c(c1)OCCO2 (stereo not shown) [BMS-1210]
- IC50 [1, 7]: 12.7 nM

Compound: Cc1c(COc2cc(OCc3cccc(C#N)c3)c(CNC(CO)(Cc3ccccc3)C(=O)O)cc2Cl)cccc1-c1ccc2c(c1)OCCO2 (stereo not shown) [BMS-1218]
- IC50 [1, 7]: 10.1 nM

Compound: Cc1c(COc2cc(OCc3cccc(C#N)c3)c(CNC3(C(=O)O)CCN(C)CC3)cc2Cl)cccc1-c1ccc2c(c1)OCCO2 [BMS-1220]
- IC50 [1, 7]: 6.07 nM

Compound: Cc1c(COc2ccc(CN[C@](C)(CO)C(=O)O)c(OCc3cccc(C#N)c3)c2Cl)cccc1-c1ccc2c(c1)OCCO2 [BMS-1239]
- IC50 [1, 7]: 149 nM

Compound: Cc1c(COc2cc(OCc3cncc(C#N)c3)c(CNC[C@@H](O)CC(=O)O)cc2Cl)cccc1-c1ccc2c(c1)OCCO2 [BMS-1250]
- IC50 [1, 7]: 1.19 nM

Compound: Cc1cc(CN2CCCC[C@@H]2C(=O)O)c(OCc2cncc(C#N)c2)cc1OCc1cccc(-c2ccc3c(c2)OCCO3)c1C [BMS-1288]
- IC50 [1, 7]: 1.88 nM

Compound: Cc1cc(CNCCO)c(OCc2cncc(C#N)c2)cc1OCc1cccc(-c2ccc3c(c2)OCCO3)c1C#N [BMS-1306]
- IC50 [1, 7]: 0.92 nM

Compound: Cc1c(COc2cc(OCc3cncc(C(=O)O)c3)c(CN[C@@H](CCCN)C(=O)O)cc2Cl)cccc1-c1ccc2c(c1)OCCO2 [BMS-2002]
- IC50 [1, 7]: 10 nM

Compound: Cc1c(COc2cc(OCc3cncc(C#N)c3)c(CN[C@@H](Cc3cccnc3)C(=O)O)cc2Cl)cccc1-c1ccc2c(c1)OCCO2 [BMS-2010]
- IC50 [1, 7]: 50 nM

Compound: Cc1c(COc2cc(OCc3cncc(S(C)(=O)=O)c3)c(CO)cc2Cl)cccc1-c1ccc2c(c1)OCCO2 [BMS-3013]
- IC50 [1, 7]: 80 nM

Compound: Cc1c(COc2cc(OCc3cncc(C#N)c3)c(CN[C@H](CC(N)=O)C(=O)O)cc2Cl)cccc1-c1ccc2c(c1)OCCO2 [BMS-3024]
- IC50 [1, 7]: 5.54 nM

Compound: COc1ccccc1COc1cc(OCc2cccc(-c3ccc4c(c3)OCCO4)c2C)c(Cl)cc1CN1CCCC[C@H]1C(=O)O [BMS-3029]
- IC50 [1, 7]: 2350 nM

Compound: Cc1c(COc2cc(OCc3ccnc(C#N)c3)c(CN(C)[C@H](CO)C(=O)O)cc2Cl)cccc1-c1ccc2c(c1)OCCO2 [Compound 5a, N-(5-Chloro-2-((2-cyanopyridin-4-yl)methoxy)-4-((3-(2,3-dihydrobenzo[b][1,4]dioxin-6-yl)-2-methylbenzyl)oxy)benzyl)-N-methyl-D-serine]
- fold decrease in affinity by methylation at R3* ([2]; IC50 ratio): 1.02 fold
- IC50 [2]: 6.2 ± 0.6 nM
- % applied activity ([^89Zr]Zr-atezolizumab bound) [3, 8]: 0.2 % applied activity
- EC50 ([4]; read-out: Relative EC50 (cell viability, MTT)): 20600 nM
- % applied activity ([^89Zr]Zr-atezolizumab bound) [5]: 4.2 % applied activity
- blockade of antibody binding [5]: 50%
- Ki [5]: 700 to 4500 nM
- chromatographic logD [6]: 3.36 ± 0.04

Compound: Cc1c(COc2cc(OCc3ccnc(C#N)c3)c(CN(C)CCO)cc2Cl)cccc1-c1ccc2c(c1)OCCO2 [Compound 5c, 4-((4-Chloro-5-((3-(2,3-dihydrobenzo[b][1,4]dioxin-6-yl)-2-methylbenzyl)oxy)-2-(((2-hydroxyethyl)(methyl)amino)methyl)phenoxy)methyl)picolinonitrile]
- fold decrease in affinity by methylation at R3* ([2]; IC50 ratio): 1.32 fold
- IC50 [2]: 10 nM and 10.2 nM
- % applied activity ([^89Zr]Zr-atezolizumab bound) [3, 8]: 0.1 % applied activity
- EC50 ([4]; CHO-hPD-L1 cells, read-out: EC50 (cell viability, MTT)): 11600 nM
- % applied activity ([^89Zr]Zr-atezolizumab bound) [5]: 4.7 % applied activity
- blockade of antibody binding [5]: 50%
- Ki [5]: 700 to 4500 nM
- μHPLC logD [6]: 4.9 ± 0.3
- chromatographic logD [6]: 4.93 ± 0.27

Compound: Cc1c(COc2cc(OCc3ccnc(C#N)c3)c(CN(C)CCO)cc2Cl)cccc1-n1cccc1 [Compound 5f, 4-((4-Chloro-2-(((2-hydroxyethyl)(methyl)amino)methyl)-5-((2-methyl-3-(1H-pyrrol-1-yl)benzyl)oxy)phenoxy)methyl)picolinonitrile]
- fold reduction of affinity, pyrrole at R1 vs 1,4-benzodioxanyl analogue ([2]; IC50 ratio, pairs 4c vs 4m, 4e vs 4n, 4f vs 4o, 5c vs 5f): 1.61 fold
- IC50 [2]: 16 ± 4 nM
- μHPLC logD [6]: 4.5 ± 0.2
- chromatographic logD [6]: 4.54 ± 0.21

Compound: Cc1c(COc2cc(OCc3ccnc(C#N)c3)c(CN3CCOC3CF)cc2Cl)cccc1-c1ccc2c(c1)OCCO2 (stereo not shown) [Compound 5g, 4-((4-Chloro-5-((3-(2,3-dihydrobenzo[b][1,4]dioxin-6-yl)-2-methylbenzyl)oxy)-2-((2-(fluoromethyl)oxazolidin-3-yl)methyl)phenoxy)methyl)picolinonitrile]
- IC50 [2]: 12 ± 2 nM
- chromatographic logD [6]: > 5.75

Compound: Cc1c(COc2cc(OCc3ccnc(C#N)c3)c(CN3CCCC[C@H]3C(=O)OCCF)cc2Cl)cccc1-c1ccc2c(c1)OCCO2 [Compound 5h, 2-Fluoroethyl (S)-1-(5-Chloro-2-((2-cyanopyridin-4-yl)methoxy)-4-((3-(2,3-dihydrobenzo[b][1,4]dioxin-6-yl)-2-methylbenzyl)oxy)benzyl)piperidine-2-carboxylate]
- fold decrease in affinity by fluoroethylation / fluoroethyl carbamylation at R3* ([2]; IC50 ratio): 265 fold
- IC50 [2]: 1290 nM
- chromatographic logD [6]: > 5.75

Compound: Cc1c(COc2cc(OCc3ccnc(C#N)c3)c(CNCCF)cc2Cl)cccc1-c1ccc2c(c1)OCCO2 [Compound 5i, 4-((4-Chloro-5-((3-(2,3-dihydrobenzo[b][1,4]dioxin-6-yl)-2-methylbenzyl)oxy)-2-(((2-fluoroethyl)amino)methyl)phenoxy)methyl)picolinonitrile]
- IC50 [2]: 12 ± 1 nM
- μHPLC logD [6]: 5.2 ± 0.3
- chromatographic logD [6]: 5.21 ± 0.31

Compound: CC(=O)NCCN(Cc1cc(Cl)c(OCc2cccc(-c3ccc4c(c3)OCCO4)c2C)cc1OCc1cccc(C#N)c1)C(=O)OCCF [Compound 5j, 2-Fluoroethyl (2-acetamidoethyl)(5-chloro-2-((3-cyanobenzyl)oxy)-4-((3-(2,3-dihydrobenzo[b][1,4]dioxin-6-yl)-2-methylbenzyl)oxy)benzyl)carbamate]
- fold decrease in affinity by fluoroethylation / fluoroethyl carbamylation at R3* ([2]; IC50 ratio): 160 fold
- IC50 [2]: 1700 nM
- chromatographic logD [6]: 4.9 ± 0.3

Compound: N#Cc1cncc(COc2cc(OCc3cccc(-c4ccccc4)c3Br)c(Cl)cc2CN2CCCC[C@H]2C(=O)O)c1 [Example 8]
- IC50 [1, 9]: 0.01 to 0.1 nM

Compound: N#Cc1cc(COc2cc(OCc3cccc(-c4ccc5c(c4)OCCO5)c3Br)c(Cl)cc2CN2CCCC[C@H]2C(=O)O)ccn1 [Example 15]
- IC50 [1, 9]: 0.001 to 0.01 nM

Compound: COc1cc(OCc2cccc(-c3ccccc3)c2C)cc(OC)c1CN1CCCC[C@H]1C(=O)O [PD-1/PD-L1 Inhibitor 1, reference compound]
- EC50 ([4]; read-out: EC50 (cell viability, MTT)): 52300 nM

Compound: atezolizumab: high-affinity anti-PD-L1 antibody used for reference [reference compound]
- IC50 [2]: 4.1 nM
- % applied activity ([^89Zr]Zr-atezolizumab bound) ([3]; preincubation with 200 nM blocker): 0.1 % applied activity
